Assays:
[1] = tested on: Klebsiella pneumoniae strain 43816; assay: Minimal inhibitory concentration (MIC) method, growth of Klebsiella pneumoniae in tryptic soy broth; type: cell-based
Procedure: FIG. 3 show CFU of Klebsiella pneumoniae cultured in tryptic soy broth at 37° C. for 24 h with 0, 10 nM, 100 nM, 1 μM, and 10 μM CT474 dissolved in 1% Dimethyl sulfoxide (DMSO).
Microorganisms: Klebsiella pneumoniae strain 43816 (American Type Culture Collection, Manassas, Va.) was used for the studies.
The minimal inhibitory concentration (MIC) method was used to characterize the in vitro efficacy of the compound as shown in the FIG. 3. Briefly, Klebsiella pneumoniae strain 43816 (American Type Culture Collection, Manassas, Va.) was grown overnight at 37° C. to mid-log phase in tryptic soy broth. CT474 was initially suspended with DMSO, then diluted in the culture broth with final concentrations of CT474 at 0 nM (1% DMSO alone), 10 nM, 100 nM, 1 μM, and 10 μM with 10,000 CFU Klebsiella pneumoniae in 10 mL tryptic soy broth. OD600 was measured 24 h later, then the CFU was determined using a standard curve.
Statistical calculations were performed using from repeated measures. Analysis of variation (ANOVA) was used to determine differences between groups.

[2] = tested on: murine lung exposed to bleomycin; assay: Treatment of bleomycin-exposed mice with CT474 (post-disease modeling of lung fibrosis); type: in vivo, mice (C57B6 WT); details: treated from days 7 to 13, vehicle vs CT474, N=13-15 per group
Excerpt: “Vehicle” as used herein is the substance used as a carrier for the pharmaceutical agent to include aqueous solutions or oils. Oils are derived from petroleum, animal, vegetable or synthetic origin, such as peanut oil. In FIGS. 5-7 signify “veh” signify vehicle. Flow cytometry of peripheral blood buffy coat after being treated with either vehicle or CT474. Pre-mortem Pressure-Volume curve using Sireq Flexivent in murine lung exposed to bleomycin then treated from days 7 to 13 with vehicle or CT474 is shown in FIG. 6. Soluble collagen measured by Sircol assay in murine lung (C57B6 WT) exposed to bleomycin then treated from days 7 to 13 with vehicle (n=15) or […] (n=13) is shown in FIG. 7. Statistical calculations were performed using from repeated measures. Analysis of variation (ANOVA) was used to determine differences between groups.

CO[C@H]1C[C@@H](C)C/C(C)=C/[C@@H](C/C=C/c2cc3ccccc3c3ccccc23)C(=O)C[C@H](O)[C@@H](C)[C@@H](/C(C)=C/[C@@H]2CC[C@@H](O)[C@H](OC)C2)OC(=O)[C@@H]2CCCCN2C(=O)C(=O)[C@]2(O)O[C@H]1[C@@H](OC)C[C@H]2C [CT474]
effect on the growth of Klebsiella pneumoniae (CFU determined from OD600) ([1]; 10 nM, 100 nM, 1 μM, 10 μM CT474 in 1% DMSO, tryptic soy broth, 37° C., 24 h, 10,000 CFU inoculum): increasingly suppressive effects | colony forming units (CFU) of Klebsiella pneumoniae ([1]; increase in concentration of CT474 from 10 nM upto 1 μM): consecutive decrease | fibrotic lung damage [2]: significant reduction

— patent US11666560B2, “Anti-fibrotic agent” (George Mason University, priority 2020, dated 2023)
